Series [1] in a line: Effects of different dissolution media on release rate of sustained-release pellet of topiramate. Particulars: artificial gastric fluid with pH of 1.2; degradation reaction. Format: physicochemical. The protocol: In order to verify whether acidic, basic solvent media would influence the release rate of the sustained-release pellets of the present invention, 0.1 mol/L HCl (pH1.2) was prepared as artificial gastric fluid, […] phosphate buffer (pH6.8) was prepared as artificial intestinal fluid, and these media and water (500 ml) were used as release media separately, and rotation speed was 100 rpm, 37° C. 5 ml of Samples (supplemented with equivalent volume of media at the meantime) were separately taken at 1, 2, 4, 8, 12, 16, 20, 24 h, filtrated, and the subsequent filtrates were used as test solutions. High performance liquid chromatography (Appendix V D, Part II, Chinese Pharmacopoeia, 2010 Edition) was used, octylsilane-bonded silica gel was used as packing agent, 50% methanol was mobile phase, differential refractive detector was used, and flow rate was 1.5 ml per minute. 200 μl of test solution was taken and injected in liquid chromatography, and the peak area of topiramate as main drug was recorded; moreover, topiramate was taken as reference material and measured by the same method, and accumulative release percentages of drug at different time points were calculated by external standard method. The release profile of sample of Batch 1 in Example 6 (2) in the above mentioned media were drawn, and the results were shown in FIG. 2.

For series [2] the following is noted: cited from earlier work.
The conditions of series [3]: cited from earlier work. This is another data set of the same source.
The subject of the next series is human plasma protein. To be noted: plasma concentration range of 0.5-250 μm/ml; decreases with increase of plasma concentration; cited from earlier work.

The source of these data is US9421188B2, “Combination product comprising phentermine and topiramate, and preparation method thereof” (Institute of Pharmacology and Toxicology Academy of …, priority 2012, dated 2016).

As for `CC1(C)O[C@@H]2[C@@H](CO[C@@]3(COS(N)(=O)=O)OC(C)(C)O[C@@H]23)O1` [Topiramate, 2,3,4,5-bis-O-(1-methylethylidene)-β-D-fructopyranose sulfamate], the “Stability of topiramate in artificial gastric fluid” value in series [1] is given as “unstable”. Also, in series [2] (acetone, chloroform, dimethylsulfoxide and ethanol), the “Solubility in organic solvents” value is “freely soluble”. The “Solubility in alkaline solution” value in series [2] (pH of 9-10, sodium hydroxide or sodium phosphate solutions) is “very freely soluble”. Besides, the Plasma half-life in series [3] (human, in vivo) was 19 to 25 h. The “Clearance for oral administration” value in series [3] (oral administration) is 22 to 36 mL/min. Moreover, in the series on human plasma protein, the “Human plasma protein binding ratio” value was 15-41%.
